Experiments:
Assay type in all cases: cell-based
[1] = test system: S. cerevisiae wildtype and deletion strains; conditions: S. cerevisiae, 3 hours of drug exposure
[2] = test system: C. albicans; assay: TUNEL assay of DNA strand breaks (flow cytometry); conditions: after 2 hours of treatment
Method: The terminal deoxynucleotidyl transferase dUTP nick-end labeling (TUNEL) assay was used to quantify the relative abundance of DSBs in C. albicans cells treated with AFs and H2O2. The TUNEL reagent fluorescently labels both double- and single-strand DNA breaks (Ribeiro et al., 2006).
DNA strand breaks were fluorescently labeled with TUNEL reagent from the “In Situ Cell Death Detection Kit”, Roche (Mannheim, Germany). After 2 hours of treatment 5 ml of OD 0.2 cells were fixed with 3.7% formaldehyde for 30 min at room temperature, and then washed with digestion buffer consisting of 10 mM Mes pH 6.5 and 1 M sorbitol. Cell were digested for 45 min at 30° C. with 2 U of Yeast Lytic Enzyme, MP Biomedicals, (Irvine, Calif.) in 50 μl of digestion buffer. Cells were then washed in PBS with 1 M sorbitol and resuspended in permeabilization solution consisting of 0.1% Triton X-100 and 0.1% sodium citrate and 1 M sorbitol for 10 min at room temperature. Cell were again washed in PBS with 1 M sorbitol and labeled for 60 min with 10 μl of TUNEL reaction mixture. Cells were then again washed in PBS with 1 M sorbitol and resuspended in sheath fluid. Mean relative florescence was measured by flow cytometry on the FACSCalibur (Becton-Dickinson).

[3] = test system: C. albicans; assay: ROS formation by HPF fluorescence (flow cytometry); conditions: wildtype C. albicans, SDC, after 1.5 hours of treatment (CAS 0.5 μg/ml)
Method: (§1) The formation of ROS following AF treatment in yeast was measured using the dye 3′-(p-hydroxyphenyl) fluorescein (HPF), which is preferentially oxidized by intracellular hydroxyl radicals into a fluorescent product (Kohanski et al., 2007). Exponentially growing wildtype S. cerevisiae and C. albicans were treated in synthetic dextrose complete (SDC) medium with the minimum concentration of fungicide required to achieve at least a 90% reduction in colony forming units (CFU) after three hours of exposure. As a positive control, cells were also treated with H2O2, a potent inducer of hydroxyl radical formation (Perrone et al., 2008).
(§2) Overnight yeast cultures were diluted into the indicated media and grown to an OD600 of 0.2, at which point the AFs were added. Colony forming units (CFU) were measured by plating six serial dilutions onto YPD agar plates. Cells treated with MCZ were washed before serial dilution to stop growth inhibition associated with high concentrations of MCZ. CFU were counted after three days of incubation on agar plates. When indicated, thiourea (Fluka) was added 30 min prior to the addition of AFs. HPF (10 μM) (Invitrogen) and Mito Tracker (1 μM) (Invitrogen) dyes were added to PBS-washed cells at the indicated time points and incubated for 30 min prior to flow cytometry measurements, which were taken on the FACSCalibur (Becton-Dickinson). All experiments described in this section were conducted in 0.5 ml of SDC in 24-well plates incubated at 900 rpm and 37° C. for C. albicans and 30° C. and 300 rpm for S. cerevisiae. TUNEL assays were conducted as previously described (Ribeiro et al., 2006) and are described in detail in the TUNEL section of the Experimental Procedures.

[4] = test system: S. cerevisiae; assay: ROS formation by HPF fluorescence (flow cytometry); conditions: wildtype S. cerevisiae, SDC, after 1.5 hours of treatment
Method: as §1, §2

[5] = test system: C. albicans; assay: Metabolomic profiling of intracellular metabolites (Metabolon)
Method: The results described herein link AF treatment to distinct changes in intracellular metabolic activity as part of an induced common killing mechanism. To further explore the role of metabolism in AF-induced cellular death, the effect of AF treatment on the intracellular metabolome of C. albicans was measured. To do so, a platform for metabolite detection and relative quantification from Metabolon Inc. (Durham, USA) (Evans et al., 2009) was utilized. Exponentially growing C. albicans cells were treated with AFs and samples collected for metabolomic analysis after 1.5 hours of treatment, a time point when it was expected that at least 90% of cells contributing to the metabolite pool would be irreversibly committed to the death pathway (FIGS. 7A-7D).
C. albicans cells were lysed and assayed by Metabolon Inc. (Durham, USA) as previously described (Shakoury-Elizeh et al., 2010). ATP and AMP were extracted as previously described (Walther et al., 2010) and analyzed by HPLC. This procedure is more fully described elsewhere herein.
C. albicans cells were incubated in 100 ml of SDC in 250 ml flasks at 37° C. and 300 rpm. Cells were exposed to AFs at an OD600 of 0.2, and cellular pellets from 100 ml of media were collected after 1.5 h of treatment. Cells were lysed and assayed by Metabolon Inc. (Durham, USA) as previously described (Evans et al., 2009; Shakoury-Elizeh et al., 2010).

| SMILES | susceptibility of rad50 and rad52 knockouts vs wildtype [1] | TUNEL relative fluorescence (DNA breaks) [2] | HPF fluorescence (formation of ROS) [3] | HPF fluorescence (formation of ROS) [4] | intracellular sugars (fructose, mannose, trehalose) abundance vs control ([5]; 1.5 hours of treatment) | fermentative waste products (2,3-butanediol and glycerol) ([5]; 1.5 hours of treatment, vs untreated) | metabolic changes compared with those induced by AMB, MCZ and CIC ([5]; CAS 0.5 μg/ml, 1.5 hours) |
| --- | --- | --- | --- | --- | --- | --- | --- |
| OO [H2O2] | considerably more susceptible | elevated relative fluorescence | dramatic induction of HPF fluorescence | dramatic induction of HPF fluorescence |  |  |  |
| CC[C@H](C)C[C@H](C)CCCCCCCCC(=O)N[C@H]1C[C@@H](O)[C@@H](NCCN)NC(=O)[C@@H]2[C@@H](O)CCN2C(=O)[C@H]([C@H](O)CCN)NC(=O)[C@H]([C@H](O)[C@@H](O)c2ccc(O)cc2)NC(=O)[C@@H]2C[C@@H](O)CN2C(=O)[C@H]([C@@H](C)O)NC1=O [caspofungin] |  |  | elevated ROS levels |  | elevation of sugars | reduction in fermentative byproducts | similar |

From patent US20150366890A1, “COMPOSITIONS AND METHODS FOR TREATING FUNGAL INFECTIONS” (TRUSTEES OF BOSTON UNIVERSITY, priority 2013, published 2015)
